Reference: ChEMBL document CHEMBL1201862, “PubChem BioAssay data set” (2004)
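Step 1: Grow cells in 96-well plates. Step 2: Expose to compound for 48 hours at 5 concentrations. Step 3: Interpolate endpoints linearly; if unreached, use highest concentration. At the GI50, growth is halved.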 The source made the active and inactive calls. No stated cut-off is given here; in the data, active = GI50 up to about 1.1 µM and inactive = higher.

Tests used:
Test in all cases: DTP human tumour cell line panel, 48 h
[1] = tested on: HCT-15
[2] = tested on: MDA-N
[3] = tested on: K562
[4] = tested on: SK-OV-3
[5] = tested on: HT-29
[6] = tested on: NCI-H460
[7] = tested on: A498
[8] = tested on: MDA-MB-231
[9] = tested on: RXF 393
[10] = tested on: ACHN
[11] = tested on: SF-539
[12] = tested on: Hs-578T
[13] = tested on: SNB-75
[14] = tested on: UO-31
[15] = tested on: HCT-116
[16] = tested on: NCI-H522
[17] = tested on: CCRF-CEM
[18] = tested on: U-251
[19] = tested on: SF-295

Measured: GI50

CC(C)C(O)(C(C)C)C(C)C
inactive: [2] > 100 µM | [3] > 100 µM | [4] > 100 µM | [5] > 100 µM | [6] > 100 µM | [7] > 100 µM | [8] > 100 µM | [9] > 100 µM | [10] > 100 µM | [11] > 100 µM | [12] > 100 µM | [13] > 100 µM | [14] > 100 µM | [15] > 100 µM | [16] > 100 µM | [17] > 100 µM | [18] > 100 µM | [19] > 100 µM
> 100 µM: [1]

S=C(Nc1c2c(nc3ccccc13)CCCC2)Nc1c2c(nc3ccccc13)CCCC2
inactive: [2] > 100 µM | [3] > 100 µM | [4] > 100 µM | [5] > 100 µM | [6] > 100 µM | [7] > 100 µM | [8] > 100 µM | [9] > 100 µM | [10] > 100 µM | [12] > 100 µM | [13] > 100 µM | [14] > 100 µM | [15] > 100 µM | [16] > 100 µM | [17] > 100 µM | [18] > 100 µM | [19] > 100 µM
> 100 µM: [1]

CC(C)CCNC(=O)c1ccc(CNC(=O)/C=C/c2csc(-c3ccccc3)n2)cc1
95.5 µM: [1]
inactive: [2] > 100 µM | [3] > 100 µM | [4] 40 µM | [5] 31.1 µM | [6] > 100 µM | [7] 19.9 µM | [8] 33 µM | [9] 17.3 µM | [10] 52.7 µM | [11] > 100 µM | [12] 32.6 µM | [13] 14.4 µM | [14] 19.6 µM | [15] 46.7 µM | [16] 41 µM | [17] > 100 µM | [18] 29.4 µM | [19] 33.9 µM

N#C/C(=C\n1ccc(=O)[nH]c1=S)C(N)=O
inactive: [2] > 100 µM | [3] > 100 µM | [4] > 100 µM | [5] > 100 µM | [6] > 100 µM | [7] > 100 µM | [8] > 100 µM | [9] > 100 µM | [10] > 100 µM | [11] > 100 µM | [12] > 100 µM | [13] > 100 µM | [14] > 100 µM | [15] > 100 µM | [16] > 100 µM | [17] > 100 µM | [18] > 100 µM | [19] > 100 µM
> 100 µM: [1]

C=C(Br)CN(C(C)=O)C1CCCCC1
> 100 µM: [1]
inactive: [2] > 100 µM | [3] > 100 µM | [4] > 100 µM | [5] > 100 µM | [6] > 100 µM | [7] > 100 µM | [8] > 100 µM | [9] > 100 µM | [10] > 100 µM | [11] > 100 µM | [12] > 100 µM | [13] > 100 µM | [14] > 100 µM | [15] > 100 µM | [16] > 100 µM | [17] > 100 µM | [18] > 100 µM | [19] > 100 µM

CC(=O)O[C@H]1C(=O)[C@@]2(C)[C@H]([C@H](OC(=O)c3ccncc3)[C@]3(O)C[C@H](OC(=O)[C@H](O)[C@@H](NC(=O)c4ccccc4)c4ccccc4)C(C)=C1C3(C)C)[C@]1(OC(C)=O)CO[C@@H]1C[C@@H]2O
inactive: [4] 14.2 µM | [5] 1.42 µM | [6] 9.14 µM | [7] > 15.5 µM | [8] > 20 µM | [9] 7.01 µM | [10] > 22.3 µM | [12] 1.22 µM | [13] 3.56 µM | [14] > 25 µM | [16] 1.77 µM | [18] 2.34 µM | [19] > 16.9 µM
active: [2] 0.877 µM | [3] 0.953 µM | [11] 0.875 µM | [15] 1.1 µM | [17] 0.875 µM
> 25 µM: [1]

O=[N+]([O-])c1cccc2nc3ccccc3c(NCCN(CCO)CCO)c12
active: [2] 0.00143 µM | [4] 0.00989 µM | [5] 0.00256 µM | [6] 0.000815 µM | [7] 0.00501 µM | [8] 0.00268 µM | [9] 0.00121 µM | [10] 0.00361 µM | [11] 0.00689 µM | [12] 0.00515 µM | [13] 0.00726 µM | [14] 0.0397 µM | [15] 0.00114 µM | [16] 0.00116 µM | [18] 0.00391 µM | [19] 0.00698 µM
0.0108 µM: [1]
